Laboratory results taken from paper PMC7076710, “Synthesis, Identification, and Structure–Activity Relationship Analysis of GATA4 and NKX2-5 Protein–Protein Interaction Modulators” (Journal of Medicinal Chemistry, 2019).

Columns and labels:
Type in all cases: cell-based
COS-1 cells [1] = test: MTT assay (cell viability)
Text: (§1) To investigate the toxicity as a potential cause of decreased or increased activity in luciferase reporter gene assays, we tested a set of 40 active compounds in the COS-1 cell line used for the luciferase assays. Concentration-dependent toxic effects were investigated using the lactate dehydrogenase (LDH) assay to detect necrosis and the 3-(4,5-dimethylthiazol-2-yl)-2,5-diphenyltetrazolium bromide (MTT) assay as a measure of cell viability. […] For the data analysis, compounds were classified as toxic (Figures 5 and 7) if they induced a >10% decrease in cell viability in the MTT assay at the concentration of 10 μM. The most toxic compounds (35a, 35d, 54, 58, and 63–65) in the MTT assay all contained a phenyl substituent in the southern part ring, while the ortho-nitrophenyl-derivative 39g and the phenyl-substituted thiophene 47t were nontoxic. Higher flexibility in the central parts of the ethers (35a, 35d) and N-acylated amines (58, 64) might contribute to their toxicity, because less rigid compounds are more likely to have affinity to various biological targets. Such interactions can cause toxicity. To confirm and validate the results from MTT assays, we tested three nontoxic (2, 47s, and 72) and three toxic (1, 35a, and 58) compounds in a cell viability assay measuring intracellular ATP content.
(§2) Figure 5 Effects of selected compounds on COS-1 cell viability. (A) Compound-induced necrosis was quantified with the LDH assay after a 24-h compound exposure. The data are presented as cytotoxicity percentage (% of maximal LDH release). (B) Cell viability was analyzed with the MTT assay after a 24-h compound exposure. (A,B) The data are means from 2–3 independent experiments with 3 replicate wells in each and are presented as % of control (vehicle-treated cells). The compounds have been grouped on the basis of the structure of the central part: a, amide; b, ether; c, N-acylated amine; d, amine; and e, imine. (C) The effects of selected compounds on cell viability as determined by ATP content after a 24-h compound exposure. The data are mean + SEM from three independent experiments and are presented as % of vehicle-treated cells.
(§3) For toxicity screening, COS-1 cells were cultured in DMEM (Sigma-Aldrich, Steinheim, Germany) supplemented with 10% fetal bovine serum, 100 U/mL penicillin, and 100 μg/mL streptomycin (all from Gibco, Thermo Scientific) at 37 °C with 5% CO2. The cells were plated on 96-well plates at 10 000 cells/well and exposed to test compounds at a concentration range of 1–30 μM on the following day. After a 24-h compound treatment, lactate dehydrogenase (LDH) and 3-(4,5-dimethylthiazol-2-yl)-2,5-diphenyltetrazolium bromide (MTT) assays were carried out as described previously.[48] Briefly, LDH activity was determined from 50 μL samples of cell culture medium, to which 50 μL of substrate solution [1.3 mM β-nicotinamide-adenine dinucleotide, 660 μM iodonitrotetrazolium, 54 mM L(+)-lactic acid, and 280 μM phenazine methosulfate in 0.2 M Tris-HCl, pH 8.2, all from Sigma-Aldrich] was added, and the plate was incubated for 30 min at room temperature. The reaction was stopped with acetic acid (final concentration 333 mM), and absorbance was measured at 490 nm. The absorbance values of the samples were normalized to maximal LDH release and spontaneous LDH release determined on the same plate. Mitochondrial metabolic activity was quantified by incubating the cells with 0.5 mg/mL MTT (from Sigma-Aldrich) for 2 h at 37 °C with 5% CO2, whereafter culture medium was removed and formazan crystals were dissolved in DMSO. The absorbance was measured at 550 nm, and absorbance at 650 nm was subtracted as background.

[2] = target: T1, GATA4–NKX2-5 transcriptional synergy (Mus musculus, UniProt P42582+Q08369); test: GATA4–NKX2-5 transcriptional synergy luciferase reporter assay (3xNKE reporter, COS-1 cells)
T1 construct: expressed in transfected cells; host or cells: COS-1

COS-1 cells [3] = test: LDH assay (necrosis)
Text: as §1, §2, §3

[4] = COS-1, 3 µM, luciferase reporter activity, % of control
[5] = COS-1, 10 µM, luciferase reporter activity, % of control
[6] = COS-1, compound 3 µM, luciferase reporter activity relative to control
[7] = COS-1, GATA4-NKX2-5 transcriptional synergy luciferase reporter assay, compound at 3 µM
[8] = COS-1, GATA4-NKX2-5 transcriptional synergy luciferase reporter assay, compound at 10 µM
[9] = COS-1, compound at 3 µM, luciferase reporter activity, % of control
[10] = COS-1, compound at 10 µM, luciferase reporter activity, % of control
[11] = COS-1, compound 10 µM, luciferase reporter activity relative to control
[12] = 3 µM compound, GATA4–NKX2-5 transcriptional synergy reporter, COS-1 cells
[13] = 10 µM compound, GATA4–NKX2-5 transcriptional synergy reporter, COS-1 cells
[14] = COS-1, compound 3 µM, luciferase reporter activity, spread in separate STDEV column
[15] = COS-1, compound 10 µM, luciferase reporter activity, spread in separate STDEV column

T1 sequence (Q08369 whole entry): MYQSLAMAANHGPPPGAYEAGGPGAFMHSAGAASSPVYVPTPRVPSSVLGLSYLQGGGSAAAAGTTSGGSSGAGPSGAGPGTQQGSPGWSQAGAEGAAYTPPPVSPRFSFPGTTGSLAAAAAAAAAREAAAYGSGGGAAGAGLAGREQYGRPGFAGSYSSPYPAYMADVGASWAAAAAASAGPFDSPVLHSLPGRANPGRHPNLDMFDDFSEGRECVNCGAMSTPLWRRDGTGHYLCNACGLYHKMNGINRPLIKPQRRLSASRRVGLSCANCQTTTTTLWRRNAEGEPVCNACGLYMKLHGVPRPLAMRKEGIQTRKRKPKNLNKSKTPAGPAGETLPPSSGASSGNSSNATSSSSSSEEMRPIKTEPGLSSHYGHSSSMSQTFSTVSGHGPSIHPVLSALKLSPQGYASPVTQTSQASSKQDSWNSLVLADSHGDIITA
T1 sequence (P42582 whole entry): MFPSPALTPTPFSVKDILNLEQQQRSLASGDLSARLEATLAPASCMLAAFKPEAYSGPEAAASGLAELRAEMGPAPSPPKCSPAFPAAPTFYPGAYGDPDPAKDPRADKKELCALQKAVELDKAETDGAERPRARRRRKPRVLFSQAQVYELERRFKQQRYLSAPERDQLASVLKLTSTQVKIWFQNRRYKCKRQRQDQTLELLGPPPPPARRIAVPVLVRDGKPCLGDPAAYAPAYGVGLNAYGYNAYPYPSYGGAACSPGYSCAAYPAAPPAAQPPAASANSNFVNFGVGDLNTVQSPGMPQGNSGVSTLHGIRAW

## CCN(CC)c1ccc(NC(=O)c2c(-c3cccc([N+](=O)[O-])c3)noc2C)cc1 [Compound 39g]
COS-1 cells [1]; 1 µM, cell viability
  MTT.1µM: 105.86
COS-1 cells [1]; 3 µM, cell viability
  MTT.3µM: 108.44
COS-1 cells [1]; 10 µM, cell viability
  MTT.10µM: 106.4
COS-1 cells [1]; 30 µM, cell viability
  MTT.30µM: 104.14
COS-1 cells [1]; 24-h exposure, classified at 10 μM
  toxicity class in the MTT assay: nontoxic (nontoxic compounds (cell viability >90%))
[2]; COS-1, 3 µM, luciferase reporter activity relative to control
  activity at 3 µM: 93.4%
COS-1 cells [3]; 1 µM
  LDH.1µM: 1.8
COS-1 cells [3]; 3 µM
  LDH.3µM: 1.19
COS-1 cells [3]; 10 µM
  LDH.10µM: -0.41
COS-1 cells [3]; 30 µM
  LDH.30µM: -0.68

## CCCCOc1ccc(NC(=O)c2c(-c3ccccc3)noc2C)cn1 [SI7]
[2]; [4]
  activity at 3 µM: 97.9%
[2]; [5]
  activity at 10 µM: 79%

## CCN(CC)c1ccc(/C=N/c2c(-c3ccccc3)noc2C)cc1 [Compound 31, (E)-N-[4-(Diethylamino)benzylidene]-5-methyl-3-phenylisoxazol-4-amine]
[2]; [6]
  activity at 3 µM: 94.1%

## O=C1COc2ccc(NC(=O)c3cc(-c4ccccc4)[nH]n3)cc2N1 [SI121]
[2]; [7]
  activity at 3 µM: 101%
[2]; [8]
  activity at 10 µM: 90.6%

## CCN(CC)c1ccc(NC(=O)c2cc(-c3ccco3)[nH]n2)cc1 [SI120]
[2]; [7]
  activity at 3 µM: 91.7%
[2]; [8]
  activity at 10 µM: 90.7%

## Cc1onc(-c2ccccc2)c1C(=O)N1CCc2cc([N+](=O)[O-])ccc21 [SI16]
[2]; [4]
  activity at 3 µM: 99.5%
[2]; [5]
  activity at 10 µM: 91.3%

## O=C(Nc1cccc(N2CCCC2=O)c1)c1cc(-c2ccccc2)[nH]n1 [SI130]
[2]; [7]
  activity at 3 µM: 102%
[2]; [8]
  activity at 10 µM: 106%

## Cc1onc(-c2cccc([N+](=O)[O-])c2)c1C(=O)Nc1ccc(N(C)C)cc1 [Compound 40]
[2]; [9]
  activity at 3 µM: 95%
[2]; [10]
  activity at 10 µM: 101%

## CCN(CC)c1ccc(NC(=O)c2c(-c3ccccc3)nnn2CCC2OCCO2)cc1 [SI58]
[2]; [6]
  activity at 3 µM: 78.8%
[2]; [11]
  activity at 10 µM: 65%

## CCN(C(=O)c1c(-c2ccccc2)noc1C)c1ccc(Nc2ccccc2)cc1 [SI6]
[2]; [4]
  activity at 3 µM: 114%
[2]; [5]
  activity at 10 µM: 87.2%

## COc1ccc(-c2cc(N=Cc3ccc(N(C)C)cc3)n[nH]2)cc1 [SI91]
[2]; [9]
  activity at 3 µM: 94.2%
[2]; [10]
  activity at 10 µM: 89.2%

## Cc1onc(-c2ccccc2)c1NCc1ccc(N(C)C)cc1 [SI109]
[2]; [9]
  activity at 3 µM: 87.1%
[2]; [10]
  activity at 10 µM: 89.9%

## CCN(CC)c1ccc(NC(=O)c2ccoc2CCc2cccs2)cc1 [Compound 47i]
[2]; [12]
  activity at 3 µM: 89%
[2]; [13]
  activity at 10 µM: 103%

## Cc1onc(-c2ccc(Br)s2)c1C(=O)NC1CC1 [SI117]
[2]; [14]
  activity at 3 µM: 90%
[2]; [15]
  activity at 10 µM: 105%

## Cc1onc(-c2ccccc2)c1C(=O)Nc1cnc2ccccc2c1 [SI12]
[2]; [9]
  activity at 3 µM: 108%
[2]; [10]
  activity at 10 µM: 99.5%

## CCN(CC)c1ccc(NC(=O)c2c(-c3ccc([N+](=O)[O-])cc3)noc2C)cc1 [Compound 39a]
[2]; [4]
  activity at 3 µM: 89.2%
[2]; [5]
  activity at 10 µM: 99.8%

## CCN(CC)c1ccc(NC(=O)c2c(-c3c(Cl)cccc3Cl)noc2C)cc1 [Compound 39e, 3-(2,6-Dichlorophenyl)-N-[4-(diethylamino)phenyl]-5-methylisoxazole-4-carboxamide]
[2]; [9]
  activity at 3 µM: 88.9%

## CCN(CC)c1ccc(C(=O)Cn2nnnc2-c2ccccc2)cc1 [SI69]
[2]; [6]
  activity at 3 µM: 96.6%
[2]; [11]
  activity at 10 µM: 87.9%

## CCN(CC)c1ccc(/N=C(\SCCF)c2c(-c3ccccc3)noc2C)cc1 [Compound 24b]
[2]; [9]
  activity at 3 µM: 122%
[2]; [10]
  activity at 10 µM: 108%

## CCCCCc1ccc(C(=S)Nc2c(-c3ccccc3)noc2C)cc1 [SI35]
[2]; [6]
  activity at 3 µM: 89.2%
[2]; [11]
  activity at 10 µM: 75.8%

## CCN(CC)c1ccc(NC(=O)c2nnn(C)c2-c2ccccc2)cc1 [Compound 47p]
[2]; [6]
  activity at 3 µM: 86.8%

## Cc1onc(-c2ccccc2)c1NC(=O)c1ccc(N2CCN(C)CC2)cc1 [Compound 67]
[2]; [9]
  activity at 3 µM: 90.6%
[2]; [10]
  activity at 10 µM: 124%

## Cc1onc(-c2ccccc2)c1COc1ccc(C(=O)OCc2ccoc2)cc1 [Compound 35c]
[2]; [6]
  activity at 3 µM: 114%
[2]; [11]
  activity at 10 µM: 101%

## CCOC(=O)c1cc(NC(=O)c2cc(-c3ccccc3)no2)c[nH]1 [SI126]
[2]; [7]
  activity at 3 µM: 100%
[2]; [8]
  activity at 10 µM: 101%

## COc1ccc(C(=O)Nc2c(-c3ccccc3)noc2C)cc1 [SI32]
[2]; [4]
  activity at 3 µM: 110%
[2]; [5]
  activity at 10 µM: 96.2%

## Cc1onc(-c2ccccc2)c1NCc1ccc(N(CCO)CCO)cc1 [SI43]
[2]; [14]
  activity at 3 µM: 109%
[2]; [15]
  activity at 10 µM: 99.7%

## Cc1onc(-c2ccccc2)c1NC(=O)NC1CCCCC1 [SI25]
[2]; [9]
  activity at 3 µM: 91.2%
[2]; [10]
  activity at 10 µM: 118%

## CCN(CC)c1ccc(/N=C(\SC)c2c(-c3ccccc3)noc2C)cc1 [Compound 24a]
[2]; [9]
  activity at 3 µM: 72.7%

## CCN(CC)c1ccc(NC(=O)c2c(-c3ccccc3)nnc3ccccc23)cc1 [Compound 47j]
[2]; [6]
  activity at 3 µM: 113%

## O=C(Nc1ccc(N2CCCS2(=O)=O)cc1)c1c[nH]cc1-c1ccc(Cl)s1 [SI127]
[2]; [7]
  activity at 3 µM: 96.7%
[2]; [8]
  activity at 10 µM: 82.9%

## CN(C)c1ccc(/C=N/c2c(-c3ccccc3)nc3ncccn23)cc1 [SI46]
[2]; [9]
  activity at 3 µM: 98.9%
[2]; [10]
  activity at 10 µM: 102%

## CCN(CC)c1ccc(NC(=O)c2cnn(C)c2-c2ccccc2)cc1 [Compound 47e]
[2]; [6]
  activity at 3 µM: 81.1%

## CCN(CC)c1ccc(NCc2c[nH]nc2-c2cccs2)cc1 [SI83]
[2]; [12]
  activity at 3 µM: 99%
[2]; [13]
  activity at 10 µM: 103%

## N#Cc1ccc(NC(=O)c2cc(-c3ccncc3)[nH]n2)cc1 [SI118]
[2]; [14]
  activity at 3 µM: 96.6%
[2]; [15]
  activity at 10 µM: 102%
